The text below walks through data of patent US20190105367A1, “ANTIMICROBIAL 4-OXOQUINOLIZINES” (Emergent Product Development Gaithersburg Inc., priority 2011, published 2019).

One may read the IC50 as the midpoint of a concentration-inhibition curve. A high value points to lower potency. For orientation: MBC means the smallest concentration meeting the test's criterion for killing. The term MIC denotes the lowest concentration that inhibits growth of the organism.

≈ marks a conversion by molar mass, not a printed value. Like-named read-outs stand apart in the source and are kept apart here.

Data set [1] is described as follows: Cytotoxicity (Example 7). The data set is classed as cell-based. Particulars: human, HEPG2 V1 cells. On the procedure:
The 4-oxoquinolizine compounds of the invention preferably have a low cytotoxicity against human cells. […].
Cytotoxicity was determined for the instant 4-oxoquinolizine compounds which show low cytotoxicity. (see Table 17 following). […]

The test system of data set [2] is Acinetobacter sp. (H064200250). Nature of the data set: Preliminary MBC without and with sub-inhibitory polymyxin B (Example 4). The data set is classed as cell-based. Particulars: Acinetobacter, preliminary MBC. The method in brief: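 Incubation 18-20 h, 37° C. MBC = lowest conc. with ~90% fewer colonies than positive control (single/no colonies).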
The test system of data set [3] is E. faecalis 29212. The data set can be described thus: MIC, standard panel of Gram-positive and Gram-negative strains (Example 2). The following applies: Enterococcus faecalis, 29212; read-out: MIC E. faecalis 29212. The data set is classed as cell-based, Enterococcus faecalis.
Data set [4] relates to S. epidermis 12228. Described as above. Particulars: Staphylococcus. It counts as cell-based, Staphylococcus epidermis.
Data set [5] concerns A. baumannii J2. The data set can be described thus: Preliminary MBC without and with sub-inhibitory polymyxin B (Example 4). The data set is classed as cell-based, Acinetobacter baumannii. Particulars: Acinetobacter baumannii, preliminary MBC.
For data set [6], the system named is A. baumannii A14. Nature of the data set: MIC without and with sub-inhibitory polymyxin B (Example 4). The data set is classed as cell-based, Acinetobacter baumannii. The following applies: 1st experiment; for MIC +0.06 μg/ml PB: +0.06 μg/ml polymyxin B; for MIC without PB/MIC + PB: ratio, PB 0.06 μg/ml.
Data set [7] deals with A. baumanii 19606. Nature of the data set: MIC, standard panel of Gram-positive and Gram-negative strains (Example 2). The data set is classed as cell-based. Particulars: Acinetobacter baumannii.
The subject of data set [8] is S. aureus 101. Described as above. It counts as cell-based. Particulars: Staphylococcus aureus.
The subject of data set [9] is A. baumannii A14. The data set can be described thus: Preliminary MBC without and with sub-inhibitory polymyxin B (Example 4). The data set is classed as cell-based, Acinetobacter baumannii. Particulars: A. baumannii A14, preliminary MBC, 1st experiment; for MBC +0.06 μg/ml PB: +0.06 μg/ml polymyxin B.
Data set [10] concerns E. cloacae 13047. Nature of the data set: MIC, standard panel of Gram-positive and Gram-negative strains (Example 2). The data set is classed as cell-based, Enterobacter cloacae. The following applies: Enterobacter cloacae, 13047; read-out: MIC E. cloacae 13047.
Data set [11] concerns S. aureus SMITH. Nature of the data set: MIC, panel of quinolone-resistant strains (Example 2). The data set is classed as cell-based. Particulars: Staphylococcus aureus; CIP R; read-out: MIC S. aureus SMITH.
Data set [12] deals with strains of A. baumannii and one strain of Acinetobacter sp. The data set can be described thus: MIC without polymyxin B, panel of Acinetobacter strains (Example 4). It counts as cell-based. Particulars: Acinetobacter baumannii, ATCC19606, read-out: MIC range without PB Oct. 1, 2006 n = 8, 1st experiment; resistant strains, ATCC 19606, A329, A390 and A473 not taken.
Where [13] appears, read: Acinetobacter spp. H064200250 (OXA51), +[…] PB, 2nd experiment, read-out: MBC.
Setting [14] is: read-out: MBC +[…] PB, Acinetobacter spp. H064200250, +[…] polymyxin B, 1st experiment.
Setting [15] is: J2, A. baumannii J2, +[…] PB, 2nd experiment, read-out: MBC.
Where [16] appears, read: J2, read-out: MBC +[…] PB, A. baumannii J2, +[…] polymyxin B, 1st experiment.

Turning to `Cc1c(-c2cc(Cl)c(N)c(Cl)c2)ccn2c(=O)c(C(=O)O)cc(C3CC3)c12` [Compound 3, 8-(3,5-dichloro-4-amino-phenyl)-1-cyclopropyl-9-methyl-4-oxo-quinolizine-3-carboxylic acid], the IC50 in [1] turned out to be 50 µM. In addition, the MBC is 0.06 µg/mL (≈ 0.149 µM) in data set [2] (setting [13]); 0.5 µg/mL (≈ 1.24 µM) in data set [2] (setting [14]); ≤ 0.03 µg/mL in [5] (setting [15]); 0.125 µg/mL (≈ 0.31 µM) in data set [5] (setting [16]); > 32 µg/mL in data set [9] (Acinetobacter baumannii, without polymyxin B, read-out: MBC without PB). In addition, the MIC in [3] is 0.016 µg/mL (≈ 0.0397 µM); in data set [4] it was 0.008 µg/mL (≈ 0.0198 µM); in [6] (Acinetobacter baumannii, 24 h, without polymyxin B, read-out: MIC without PB), > 32 µg/mL; in data set [7] it was 0.25 µg/mL (≈ 0.62 µM); in data set [8], 0.06 µg/mL (≈ 0.149 µM); in data set [10], 0.5 µg/mL (≈ 1.24 µM). In data set [11], the MIC was 0.5 µg/mL (≈ 1.24 µM). Moreover, in [6], the “MIC +0.06 μg/ml PB” value was 1 µg/mL. Besides, in data set [6], the “MIC without PB/MIC + PB” value was ≥32. Also, the “MBC +0.06 μg/ml PB” value in data set [9] stood at 1 µg/mL.

In turn, `Cc1c(-c2ccc(N)cc2)ccn2c(=O)c(C(=O)O)cc(C3CC3)c12` [Compound 8, 8-(4-amino-phenyl)-1-cyclopropyl-9-methyl-4-oxo-quinolizine-3-carboxylic acid] registered an IC50 in data set [1] of 90 µM. Moreover, the MBC is 0.125 µg/mL (≈ 0.374 µM) in data set [2] (setting [13]), 0.5 µg/mL (≈ 1.5 µM) in [2] (setting [14]), ≤ 0.03 µg/mL in data set [5] (setting [15]) and 0.125 µg/mL (≈ 0.374 µM) in data set [5] (setting [16]). In addition, the MIC in [12] was 2 to 32 µg/mL (≈ 5.98 to 95.7 µM); in data set [3], 0.03 µg/mL (≈ 0.0897 µM); in [7] it was 0.125 µg/mL (≈ 0.374 µM); in data set [8] it was 0.5 µg/mL (≈ 1.5 µM); in data set [10], 0.25 µg/mL (≈ 0.748 µM). Moreover, the “MIC +0.06 μg/ml PB” value in data set [6] turned out to be 1 µg/mL. In [6], the “MIC without PB/MIC + PB” value turned out to be 32. The “MBC +0.06 μg/ml PB” value in [9] was 1 µg/mL.
